# Results taken from patent publication US4435404A, “Carbostyril derivatives” (priority 1980, dated 1984).
# What was measured:
# [1] = target: T1, cyclic AMP phosphodiesterase (Oryctolagus cuniculus, UniProt G1ST54); assay: Obstructive action against cyclic AMP phosphodiesterase; format: biochemical; conditions: rabbit platelet enzyme, 30° C., 20 minutes
# T1 construct: the supernatant was collected to use it as a crude enzyme solution; from tissue; host or cells: rabbit platelets (from platelet-rich plasma)
# T1 sequence (G1ST54 1-1128): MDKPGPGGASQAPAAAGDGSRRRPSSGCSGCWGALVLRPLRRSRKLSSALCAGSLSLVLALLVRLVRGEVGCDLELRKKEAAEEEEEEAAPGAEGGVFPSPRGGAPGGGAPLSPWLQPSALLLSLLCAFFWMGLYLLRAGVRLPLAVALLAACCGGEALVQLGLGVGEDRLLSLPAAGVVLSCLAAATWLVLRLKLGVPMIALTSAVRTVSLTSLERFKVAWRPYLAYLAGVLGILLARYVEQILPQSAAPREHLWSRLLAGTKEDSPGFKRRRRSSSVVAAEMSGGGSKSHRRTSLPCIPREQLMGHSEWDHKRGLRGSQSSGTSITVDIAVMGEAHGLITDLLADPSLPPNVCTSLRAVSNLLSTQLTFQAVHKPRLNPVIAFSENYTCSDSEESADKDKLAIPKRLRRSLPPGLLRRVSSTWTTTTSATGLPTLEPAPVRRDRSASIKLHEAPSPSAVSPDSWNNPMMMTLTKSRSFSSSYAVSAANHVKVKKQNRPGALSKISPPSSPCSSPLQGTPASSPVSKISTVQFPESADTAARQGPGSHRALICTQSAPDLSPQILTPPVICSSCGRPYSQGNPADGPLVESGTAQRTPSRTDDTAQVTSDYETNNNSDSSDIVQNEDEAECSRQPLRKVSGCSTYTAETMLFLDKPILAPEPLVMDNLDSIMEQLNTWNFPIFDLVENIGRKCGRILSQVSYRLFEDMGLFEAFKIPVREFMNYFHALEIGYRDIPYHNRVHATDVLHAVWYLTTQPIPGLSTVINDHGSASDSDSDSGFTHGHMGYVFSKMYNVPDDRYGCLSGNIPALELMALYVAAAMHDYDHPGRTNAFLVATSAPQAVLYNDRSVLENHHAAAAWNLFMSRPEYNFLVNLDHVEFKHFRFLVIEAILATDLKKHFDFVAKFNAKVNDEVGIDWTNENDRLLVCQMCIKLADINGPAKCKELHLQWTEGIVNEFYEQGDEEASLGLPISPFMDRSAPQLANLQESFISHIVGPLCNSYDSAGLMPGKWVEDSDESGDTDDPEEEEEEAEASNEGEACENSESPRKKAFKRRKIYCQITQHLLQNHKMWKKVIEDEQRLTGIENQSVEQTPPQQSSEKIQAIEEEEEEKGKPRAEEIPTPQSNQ
# bastard dog = assay: Increasing effect of cerebral blood flow; format: in vivo; conditions: dosage 100 μg/kg, profunda femoris vein
# Protocol: Thus, a bastard dog (male, 12-20 kg of body weight) was fixed in a prone (position) and was anesthetized with 20 mg/kg of pentobarbital sodium and made forced breathing to kept the frequency of respiration at 20 times/minutes. Then, the skull was bared and the surface bone was removed to expose the venous sinus by using grinder and the venous blood was took out from the venas which was cannulizated. The amount of venous blood flow was measured by using an electromagnetic blood flow meter and next measured by using drop-counter by measuring the number of drops of blood per 10 seconds.
# The increasing effect of cerebral blood flow was calculated by comparing the number of blood drops in 30 seconds at the peak of increasement shown before and after the administration of compound to be tested. The each of compounds to be tested was dissolved in dimethylformamide and diluted with physiological saline solution and administered through a cannule being inserted into the profunda femoris vein.
# Acute Toxicity Test = conditions: mouse, in vivo; male mice, oral administration
# Protocol: The test compounds were administered orally to the mice and LD50 (mg/kg) of the compounds was determined.
smiles,measurement,setting,value
"O=C(CCCOc1ccc2[nH]c(=O)ccc2c1)N(CCO)C1CCCCC1 [No. 1, 6-{3-[N-(2-hydroxyethyl)-N-cyclohexylaminocarbonyl]propoxy}carbostyril]",IC50,[1],150 nM
same,Increasing effect of cerebral blood flow,bastard dog,89.8%
same,LD50,Acute Toxicity Test,> 1000 mg/kg
